In article PMC5893132, “Selective inhibition of histamine-evoked Ca^2+ signals by compartmentalized cAMP in human bronchial airway smooth muscle cells” (Cell Calcium, 2018):
Structures can show the parent of a compound that is named as a salt.

Tests used:
[1] = test system: intracellular cAMP in hBASMCs; test: Intracellular cAMP in hBASMCs by mass spectrometry; type: cell-based, human
Description: These methods were modified from. Confluent cultures of hBASMCs in 48-well plates were serum-deprived (6–24 h) and the medium was then replaced with HBSS (300 μL) containing HEPES (5 mM) and BSA (0.1%, w/v). Cells were stimulated at 20 °C, and reactions were terminated by aspiration of the medium and addition of acetonitrile (170 μL) containing dibutyryl cAMP (0.5 μM, to provide an internal standard). The plates were centrifuged (1500 xg, 15 min, 4 °C), supernatants (158 μL) were transferred to a 96-well, glass-coated plate (Thermo Scientific), and aqueous NH4HCO3 (pH 9.4, 93 μL) was added to each sample. After mixing and centrifugation (1500 xg, 15 min, 4 °C), samples were stored at 4 °C before analysis. Samples were analyzed by liquid chromatography tandem mass spectrometry (LC–MS/MS) using a Waters Acquity UPLC and a Sciex 5500 mass spectrometer equipped with an electrospray ionization source. ATP, ADP, AMP and cAMP were analyzed using a ZIC-pHILIC polymeric column (5-μm particle size, […]) maintained at 35 °C. Calibration standards were prepared in the lysis medium containing the internal standard, dibutyryl cAMP (0.5 μM). […] Samples were detected using multiple reaction monitoring in negative ion mode using the following parent-to-daughter mass transitions: cAMP m/z 327.9 → 133.9 (DP −100 V, CE −33 eV), AMP m/z 345.9 → 134.0 (DP −100 V, CE −50 eV), ADP m/z 426.0 → 134.0 (DP −100 V, CE −30 eV), ATP m/z 505.9 → 408.0 (DP −100 V, CE −35 eV), and internal standard dibutyryl cAMP m/z 468.1 → 175.0 (DP −100 V, CE −35 eV). Concentration-effect relationships were fitted to logistic equations for each experiment using GraphPad Prism (version 5, GraphPad Software, La Jolla, CA, USA), from which half-maximally effective drug concentrations (EC50), maximal responses, and Hill slopes were determined. For statistical analyses, maximal responses, Hill slopes and pEC50 (-logEC50) or pIC50 (-log of the half-maximal inhibitory concentration, IC50) values determined for individual experiments were pooled for statistical analysis. […]

[2] = test system: bradykinin-evoked Ca^2+ signals in hBASMCs; test: Bradykinin-evoked Ca2+ signals in populations of fluo-4-loaded hBASMCs; type: cell-based, human; conditions: cells treated with PTX 100 ng·mL^−1, 24 h; HBS
Description: Two methods were used to measure [Ca^2+]i in populations of hBASMCs. For measurements using a FlexStation III plate-reader (Molecular Devices, Sunnyvale, CA, USA), hBASMCs were seeded into 96-well plates (10^4 cells per well). After about 4 days, when the cells were confluent, the medium was replaced with SMGM-2 without serum or growth factor supplements, and the cells were used after a further 24 h. […] Cells were washed with HEPES-buffered saline (HBS: 135 mM NaCl, 5.9 mM KCl, 1.2 mM MgCl2, 1.5 mM CaCl2, 11.6 mM HEPES, 11.5 mM D-glucose, pH 7.3), and loaded with fluo-4 by incubation with fluo-4-AM (2 μM) in HBS (100 μL per well) containing pluronic F127 (0.02%, v/v) and probenecid (2.5 mM). After 1 h at 20 °C, the medium was replaced with HBS (100 μL per well) containing probenecid (2.5 mM). After a further incubation at 20 °C for 1 h, the medium was replaced with HBS (60–80 μL per well) or nominally Ca^2+-free HBS, and the cells were used immediately for experiments at 20 °C. […] Drug additions (20 μL at 4 or 5 times the final concentration) were added automatically. Fluorescence from fluo-4 (excitation 485 nm, emission 525 nm) was recorded at 1.44-s intervals using Softmax Pro 5.4 (Molecular Devices). Fluorescence was calibrated to [Ca^2+]i from: [Ca^2+]i=KDCa×(F−Fmin/Fmax−F) where, KDCa is the equilibrium dissociation constant of fluo-4 for Ca^2+ (345 nM), F is the recorded fluorescence, and Fmin and Fmax are the fluorescence values recorded after addition of triton-X-100 (0.1%, v/v) with either BAPTA (10 mM, Fmin) or CaCl2 (10 mM, Fmax). […] Fmax was determined for each well at the end of an experiment, and the average value was used for each column of 8 wells. Fmin was determined from parallel wells on each plate.
For measurements of [Ca^2+]i using an FDSS 7000 FLIPR (Hamamatsu), hBASMCs were seeded into 384-well plates (8000 cells per well) in 20 μL of SMGM-2 containing 5% serum. […] The exact composition of this ‘no-wash’ indicator kit is not disclosed by the manufacturer, but it contains fluo-4-AM and components that reduce background fluorescence. […]

Which results are given for CC(C)NC[C@H](O)c1ccc(O)c(O)c1 [isoproterenol, (−)-isoproterenol hydrochloride]?
EC50 ([1]; Homo sapiens, 5 min, MS analyses, n = 3, read-out: pEC50 for cAMP accumulation (converted)): 132 nM; intracellular cAMP associated with matched inhibition of Ca2+ signals, relative to IBMX ([1]; isoproterenol (5 min) vs IBMX (20 min), histamine 10 μM, cAMP by MS): ~5.4 fold; effect on the Ca2+ signals evoked by bradykinin after pertussis toxin [2]: remained insensitive to isoproterenol
